This assay addresses full length NS3/4a (Hepatitis C virus genotype 1b (isolate BK) (HCV), UniProt P26663). Put plainly: NS3 Protease Assay (Example A), FRET-based. Format: biochemical. On the procedure: The HCV NS3 protease functions have been extensively studied and are considered as potential targets for antiviral therapy: see for example the many references listed in the introductory section of this application. Therefore, the activity of the compounds of the invention as anti-HCV agents was assessed using a full length HCV NS3 protease.
The protease activity of the full length NS3/4a was measured using a FRET-based assay utilizing a peptide substrate derived from the NS4A/B cleavage site (Anaspec) and labelled at one end with a quencher (QXL520) and at the other with a fluorophore (5-FAMsp). NS3/4a (produced in-house by literature methods) was incubated with test compounds and peptide substrate in 50 mM Tris pH8, 20 mM DTT, 1% CHAPS, 10% glycerol and 5% DMSO. The reaction was followed by monitoring the change in fluorescence on a Molecular Devices Gemini plate reader for 30 minutes at room temperature. Initial rates were calculated from the progress curves using SoftMax Pro (Molecular Devices). IC50 values were then calculated from replicate curves using Prism GraphPad software.

[1] abbreviates: HCV NS3 protease assay, full length NS3/4a, read-out: Assay A IC50 (μM) average.
[2] abbreviates: read-out: IC50 against the protease activity of the full length NS3/4a.
[3] abbreviates: stated as IC50 less than 30 μM or at least 40% inhibition at a concentration of 100 μM, read-out: IC50 against the protease activity of the full length NS3/4a.

Where two headings read alike, the source gives them in different places.

Sequence of full length NS3/4a (P26663 1027-1657): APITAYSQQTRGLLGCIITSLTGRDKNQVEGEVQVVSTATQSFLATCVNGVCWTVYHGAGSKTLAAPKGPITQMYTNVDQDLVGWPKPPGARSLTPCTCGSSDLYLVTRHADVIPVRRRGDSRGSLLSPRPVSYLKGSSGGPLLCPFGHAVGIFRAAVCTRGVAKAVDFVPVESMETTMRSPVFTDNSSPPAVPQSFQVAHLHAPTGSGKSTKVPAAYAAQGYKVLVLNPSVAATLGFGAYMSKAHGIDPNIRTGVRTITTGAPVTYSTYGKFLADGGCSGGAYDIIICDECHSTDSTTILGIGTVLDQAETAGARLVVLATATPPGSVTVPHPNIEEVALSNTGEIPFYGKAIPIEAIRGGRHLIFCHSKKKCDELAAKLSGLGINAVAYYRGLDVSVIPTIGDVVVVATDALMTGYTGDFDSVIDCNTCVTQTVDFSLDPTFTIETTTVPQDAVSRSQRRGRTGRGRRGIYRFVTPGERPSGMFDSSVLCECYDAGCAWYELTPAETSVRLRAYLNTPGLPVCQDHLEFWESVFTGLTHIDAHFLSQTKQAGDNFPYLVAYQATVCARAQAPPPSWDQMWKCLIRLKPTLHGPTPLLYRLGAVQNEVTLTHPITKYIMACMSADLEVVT

Consider `CCC(NC1CCCC1C(N)=O)c1ccc(Cl)c(C(=O)c2ccc(N)nc2)c1F` (single isomer, unassigned) [Example 126, 2-{[1-{3-[(6-aminopyridin-3-yl)carbonyl]-4-chloro-2-fluorophenyl}propyl]amino} cyclopentane-1-carboxamide], for which the IC50 is, setting by setting: under setting [1], 0.12 µM; under setting [2], less than 1 µM.
For the compound `CCC(NC1CCCC1C(N)=O)c1ccc(Cl)c(C(=O)c2ccc(N)nc2)c1F` (single isomer, unassigned) [Example 127, 2-{[1-{3-[(6-aminopyridin-3-yl)carbonyl]-4-chloro-2-fluorophenyl}propyl]amino} cyclopentane-1-carboxamide], the IC50 is 1.6 µM under setting [1] and 1 to 5 µM under setting [2].
As usually defined, the inhibition is the change of the read-out against control, counted positive when it falls. Higher therefore signals a response far below the control. `CCC(NC1CCCC1C(N)=O)c1ccc(Cl)c(C(=O)c2ccc(N)nc2)c1F` (single isomer, unassigned) [Example 161, 2-{[1-{3-[(6-aminopyridin-3-yl)carbonyl]-4-chloro-2-fluorophenyl}propyl]amino} cyclopentane-1-carboxamide] had an inhibition at 10 µM (@ 10 uM) of 60%. Besides, the IC50 under setting [3] was less than 30 µM.
For `CCC(NC[C@H](C)C(N)=O)c1ccc(Cl)c(C(=O)c2cccnc2)c1F` (stereo in doubt) [Example 175, (2S)-3-{[(1R)-1-{4-chloro-2-fluoro-3-[(pyridin-3-yl)carbonyl]phenyl}-propyl]amino}-2-methylpropanamide], the IC50 runs as follows: under setting [1], 1.1 µM; under setting [2], 1 to 5 µM.
On to `CC[C@@H](N)c1ccc(Cl)c(C(=O)c2ccc(O)cc2)c1F` (stereo in doubt) [Example 193, [3-(1-Amino-propyl)-6-chloro-2-fluoro-phenyl]-(4-hydroxy-phenyl)-methanone], for which the IC50 is, setting by setting: under setting [1], 0.31 µM; under setting [2], less than 1 µM.
As to `CC[C@@H](N)c1ccc(Cl)c(C(=O)c2ccc(N)nc2)c1F` [Example 1, 5-({3-[(1R)-1-aminopropyl]-6-chloro-2-fluorophenyl}carbonyl)-pyridin-2-amine], the IC50 is, setting by setting: under setting [1], 0.089 µM; under setting [2], less than 1 µM.
Take `CC[C@@H](N)c1ccc(Cl)c(C(=O)c2cccnc2)c1F` [Example 2, (1R)-1-{4-chloro-2-fluoro-3-[(pyridin-3-yl)carbonyl]phenyl}-propan-1-amine]: the IC50 under setting [1] was 1.4 µM and the IC50 under setting [2] lay within 1 to 5 µM.
In the case of `CC[C@@H](N)c1ccc(Cl)c(C(=O)c2cnc(N)cn2)c1F` [Example 3, 5-({3-[(1R)-1-aminopropyl]-6-chloro-2-fluorophenyl}carbonyl)-pyrazin-2-amine], the IC50 runs as follows: under setting [1], 1.3 µM; under setting [2], 1 to 5 µM.
`CC[C@@H](N)c1ccc(Cl)c(C(=O)c2ccc(N)cn2)c1F` [Example 5, 6-({3-[(1R)-1-aminopropyl]-6-chloro-2-fluorophenyl}carbonyl)-pyridin-3-amine]: for the setting “@ 3 uM”, the inhibition at 3 µM is 55%. In addition, the IC50 under setting [2] lay within 1 to 5 µM.
Regarding `CC[C@H](N)c1ccc(Cl)c(C(=O)c2ccccc2)c1F` [Example 6, (1S)-1-(3-benzoyl-4-chloro-2-fluorophenyl)propan-1-amine], the inhibition at 0.3 µM (@ 0.3 uM) turned out to be 80%. Under setting [2], the IC50 is less than 1 µM.
As to `CC[C@@H](N)c1ccc(Cl)c(C(=O)c2cccc(F)c2)c1F` [Example 7, (1R)-1-{4-chloro-2-fluoro-3-[(3-fluorophenyl)carbonyl]-phenyl}propan-1-amine], the IC50 by setting is: under setting [1], 0.38 µM; under setting [2], less than 1 µM.
Taken in the same sequence, the figures for `CC[C@@H](N)c1ccc(Cl)c(C(=O)c2ccc(F)cc2)c1F` [Example 8, (1R)-1-{4-chloro-2-fluoro-3-[(4-fluorophenyl)carbonyl]-phenyl}propan-1-amine] were 0.19 µM and less than 1 µM.
Regarding `CC[C@@H](N)c1ccc(Cl)c(C(=O)c2ccncn2)c1F` [Example 10, (1R)-1-{4-chloro-2-fluoro-3-[(pyrimidin-4-yl)carbonyl]phenyl}-propan-1-amine], the IC50 under setting [1] amounted to 3.5 µM and the IC50 under setting [2] lay within 1 to 5 µM.
As to `CC[C@@H](N)c1ccc(Cl)c(C(=O)c2cncnc2)c1F` [Example 12, (1R)-1-{4-chloro-2-fluoro-3-[(pyrimidin-5-yl)carbonyl]phenyl}-propan-1-amine], the inhibition at 30 µM stood at 47%. In addition, the IC50 under setting [3] was less than 30 µM.
For `CC[C@@H](N)c1ccc(Cl)c(C(=O)c2ccc(F)c(F)c2)c1F` [Example 13, (1R)-1-{4-chloro-3-[(3,4-difluorophenyl)carbonyl]-2-fluorophenyl}propan-1-amine], the IC50 runs as follows: under setting [1], 0.83 µM; under setting [2], less than 1 µM.
Turning to `CC[C@@H](N)c1ccc(Cl)c(C(=O)c2ccccn2)c1F` [Example 14, (1R)-1-{4-chloro-2-fluoro-3-[(pyridin-2-yl)carbonyl]phenyl}propan-1-amine], the IC50 is, setting by setting: under setting [1], 2.5 µM; under setting [2], 1 to 5 µM.
As to `CC[C@@H](N)c1ccc(Cl)c(C(=O)c2ccncc2)c1F` [Example 15, (1R)-1-{4-chloro-2-fluoro-3-[(pyridin-4-yl)carbonyl]phenyl}propan-1-amine], the IC50 is, setting by setting: under setting [1], 0.84 µM; under setting [2], less than 1 µM.
Consider `CC[C@@H](N)c1ccc(Cl)c(C(=O)c2ccns2)c1F` [Example 16, (1R)-1-{4-chloro-2-fluoro-3-[(1,2-thiazol-5-yl)carbonyl]phenyl}propan-1-amine], for which the IC50 by setting is: under setting [1], 0.47 µM; under setting [2], less than 1 µM.
`CC[C@@H](N)c1ccc(Cl)c(C(=O)c2cncc(OC)c2)c1F` [Example 17, (1R)-1-{4-chloro-2-fluoro-3-[(5-methoxypyridin-3-yl)carbonyl]phenyl}propan-1-amine]: 100 µM produced 65% inhibition (@ 100 uM).
Take `CC[C@@H](N)c1ccc(Cl)c(C(=O)c2cccc(C#N)c2)c1F` [Example 18, 3-({3-[(1R)-1-aminopropyl]-6-chloro-2-fluorophenyl}carbonyl)benzonitrile]: the IC50 runs as follows: under setting [1], 0.62 µM; under setting [2], less than 1 µM.
For `CC[C@@H](N)c1ccc(Cl)c(C(=O)c2ccc(C(=O)O)nc2)c1F` [Example 19, 5-({3-[(1R)-1-aminopropyl]-6-chloro-2-fluorophenyl}carbonyl)pyridine-2-carboxylic acid], the IC50 by setting is: under setting [1], 20 µM; under setting [3], less than 30 µM.
For `CC[C@@H](N)c1ccc(Cl)c(C(=O)c2nccs2)c1F` [Example 20, (1R)-1-{4-chloro-2-fluoro-3-[(1,3-thiazol-2-yl)carbonyl]phenyl}propan-1-amine], the IC50 by setting is: under setting [1], 0.82 µM; under setting [2], less than 1 µM.
As to `CC[C@@H](N)c1ccc(Cl)c(C(=O)c2cc(C)on2)c1F` [Example 21, (1R)-1-{4-chloro-2-fluoro-3-[(5-methyl-1,2-oxazol-3-yl)carbonyl]phenyl}propan-1-amine], the IC50 was 1 µM under setting [1] and 1 to 5 µM under setting [2].
As to `CC[C@@H](N)c1ccc(Cl)c(C(=O)c2ccc(C(N)=O)nc2)c1F` [Example 22, 5-({3-[(1R)-1-aminopropyl]-6-chloro-2-fluorophenyl}carbonyl)pyridine-2-carboxamide], the IC50 was 1.8 µM under setting [1] and 1 to 5 µM under setting [2].
With `[2H]C([2H])([2H])C([2H])([2H])[C@@H](N)c1ccc(Cl)c(C(=O)c2ccccc2)c1F` [Example 23, (1R)-1-(3-benzoyl-4-chloro-2-fluorophenyl)(2,2,3,3,3-D)propan-1-amine], the IC50 was 0.11 µM under setting [1] and less than 1 µM under setting [2].
On to `[2H]C([2H])([2H])C([2H])([2H])[C@H](N)c1ccc(Cl)c(C(=O)c2ccccc2)c1F` [Example 24, (1S)-1-(3-benzoyl-4-chloro-2-fluorophenyl)(2,2,3,3,3-D)propan-1-amine], for which the IC50 is, setting by setting: under setting [1], 0.075 µM; under setting [2], less than 1 µM.
In the case of `CC[C@@H](N)c1ccc(Cl)c(C(=O)c2ccc[n+]([O-])c2)c1F` [Example 25, [3-((R)-1-Amino-propyl)-6-chloro-2-fluoro-phenyl]-(1-oxy-pyridin-3-yl)-methanone], the inhibition at 30 µM worked out at 59%. Besides, the IC50 under setting [3] is less than 30 µM.
Take `CC[C@H](N)c1ccc(Cl)c(C(=O)c2cccnc2)c1F` [Example 26, (1S)-1-{4-chloro-2-fluoro-3-[(pyridin-3-yl)carbonyl]phenyl}propan-1-amine]: the IC50 by setting is: under setting [1], 0.63 µM; under setting [2], less than 1 µM.
On to `N[C@@H](c1ccc(Cl)c(C(=O)c2ccc(F)cc2)c1F)C1CC1` [Example 27, (R)-{4-chloro-2-fluoro-3-[(4-fluorophenyl)carbonyl]phenyl}(cyclopropyl)methanamine], for which the IC50 was 0.22 µM under setting [1] and less than 1 µM under setting [2].
Take `N[C@@H](c1ccc(Cl)c(C(=O)c2cccnc2)c1F)C1CC1` [Example 28, (R)-{4-chloro-2-fluoro-3-[(pyridin-3-yl)carbonyl]phenyl}(cyclopropyl)methanamine]: the IC50 runs as follows: under setting [1], 1.5 µM; under setting [2], 1 to 5 µM.
In the same order, the values of `CC[C@@H](N)c1ccc(Cl)c(C(=O)c2ccc(Cl)nc2)c1F` [Example 29, (1R)-1-{4-chloro-3-[(6-chloropyridin-3-yl)carbonyl]-2-fluorophenyl}propan-1-amine] are 0.5 µM and less than 1 µM.
Taken in the same sequence, the figures for `CC[C@H](N)c1ccc(Cl)c(C(=O)c2ccc(Cl)nc2)c1F` [Example 30, (1S)-1-{4-chloro-3-[(6-chloropyridin-3-yl)carbonyl]-2-fluorophenyl}propan-1-amine] were 0.21 µM and less than 1 µM.

(Values after US9145354B2, “Pharmaceutical compounds” (priority 2011, dated 2015).)
